# Read-outs that look alike come from different tables or passages of the source.
# Tests used:
# [1] = tested on: breast carcinoma cell strain BT474; assay: In-vitro tumor cell proliferation inhibition, MTT; assay type: cell-based, human
# From the text: (§1) The object of this assay was to test the inventive compounds for the inhibitory activity of in-vitro tumor cell proliferation. The MTT (tetreamethyl-azo-zole-salt) colorimetric method was used in this assay.
# (§2) Human non-small cell lung carcinoma cell strains HCC827, PC-9, H1975 (EGFR L858R/T790M mutation) and H292 (EGFR WT), and other tumor type cell strains, including human acute myelogenous leukemia cell strain MV4-11, human chronic granulocytic leukemia cell strain K562, human squamous cell carcinoma cell strain A431, human breast carcinoma cell strains MDA-MB-468 and BT 474, human colon cancer cell strains SW480, HCT116 and SW620, human liver cancer cell strain Hep G2, human gastric cancer cell strain MK-45, and human malignant melanoma cell strain A375 used in this assay were all purchased from ATCC company, USA and kept in the laboratory. All of the above-mentioned non-small cell lung carcinoma cell strains and the breast carcinoma cell strain BT 474 were cultured with a RPMI-1640 complete culture medium containing 10% fetal bovine serum, 100 U/ml penicillin and 100 μg/ml streptomycin under 5% CO2 and at 37° C. The other cell strains were cultured with a DMEM complete culture medium containing 10% fetal bovine serum (having a MV4-11 cell content of 20%), 100 U/ml penicillin and 100 μg/ml streptomycin under 5% CO2 and 37° C.
# (§3) A cell suspension having a cell concentration of 1-2×10^4 cells/ml was treated with a complete cell culture solution to adjust the cell concentration, wherein the cell concentrations for HCC827 and MV4-11 were adjusted to 6×10^4 cells/ml and 1×10^5 cells/ml respectively. The cell suspension was inoculated in a 96-well plate with 200 μl cell suspension/well and cultured overnight. Next day, the supernatant was drawn off and discarded. Then, the cells were treated with the tested compounds in a gradient concentration respectively. In the meanwhile, a negative control group free of the drug substance and an isovolumetric solvent control group (having a DMSO concentration of 1%) were used. The triplicate wells were used for each of dose groups. The culturing was conducted at 37° C. under 5% CO2. After 72 hours, […] having a concentration of 5 mg/ml was added to each of wells. The culturing was further conducted for 2-4 hours. The supernatant was discarded. Then […] was added to each of wells. The contents in the well were mixed homogenously by oscillation for 15 minutes. The absorbance (A) value was measured with a microplate reader at λ=570 nm (the A value is in the direct proportion to the number of living cells) and averaged. The relative cell proliferation inhibitory rate is (A570 control-group−A570 dose-group)/A570 control-group×100%. The assay was repeated for at least three times. The data was expressed as number average. The statistical data were analyzed using t-test. P<0.05 was considered significant. The cell proliferation inhibition of the following compounds was expressed as IC50 or inhibitory rate.
# [2] = tested on: liver cancer cell strain Hep G2; assay: In-vitro tumor cell proliferation inhibition, MTT; assay type: cell-based, human
# From the text: as §1, §2, §3
# [3] = tested on: breast carcinoma cell strain MDA-MB-468; assay: In-vitro tumor cell proliferation inhibition, MTT; assay type: cell-based, human
# From the text: as §1, §2, §3
# [4] = tested on: colon cancer cell strain SW620; assay: In-vitro tumor cell proliferation inhibition, MTT; assay type: cell-based, human
# From the text: as §1, §2, §3
# [5] = tested on: colon cancer cell strain SW480; assay: In-vitro tumor cell proliferation inhibition, MTT; assay type: cell-based, human
# From the text: as §1, §2, §3
# [6] = tested on: chronic granulocytic leukemia cell strain K562; assay: In-vitro tumor cell proliferation inhibition, MTT; assay type: cell-based, human
# From the text: as §1, §2, §3
# [7] = tested on: colon cancer cell strain HCT116; assay: In-vitro tumor cell proliferation inhibition, MTT; assay type: cell-based, human
# From the text: as §1, §2, §3
# [8] = tested on: malignant melanoma cell strain A375; assay: In-vitro tumor cell proliferation inhibition, MTT; assay type: cell-based, human
# From the text: as §1, §2, §3
# [9] = tested on: acute myelogenous leukemia cell strain MV4-11; assay: In-vitro tumor cell proliferation inhibition, MTT; assay type: cell-based, human
# From the text: as §1, §2, §3
# [10] = tested on: gastric cancer cell strain MK-45; assay: In-vitro tumor cell proliferation inhibition, MTT; assay type: cell-based, human; details: 72 hours, read-out: MK45 (IC50)
# From the text: as §1, §2, §3
# [11] = tested on: squamous cell carcinoma cell strain A431; assay: In-vitro tumor cell proliferation inhibition, MTT; assay type: cell-based, human
# From the text: as §1, §2, §3
# [12] = biological target: FLT3 (Homo sapiens (Human), UniProt P36888); assay: Kinase inhibitory activity, isotopic labeling (γ-33P-ATP); assay type: biochemical; details: compound at 10 μM; read-out: The kinase activity inhibitory rate (%) by the tested compounds at 10 μM FLT3
# Experimental: (§4) The object of this assay was to test the inventive compounds for the kinase inhibitory activity in vitro. In this assay, an isotopic labeling method was used to label the γ phosphate group on ATP. EGFR (including wild type, L858R mutant type and L858R/T790M double mutant type), VEGFR2, ALK, BTK, c-KIT, c-SRC, MET, PDGFRα and FLT3 kinases were tested in vitro for the activity inhibition. Staurosporine was used as a reference molecule (or referred to as a positive control). […] The IC50 value can be obtained by the calculation of the inhibitory rates at a series of different concentrations of the tested compounds.
# (§5) To a reaction tube were successively added the buffer solution (8 mM MOPS, pH 7.0, 0.2 mM EDTA, 10 mM MnCl2), the kinase to be tested (5-10 mU) (EGFR/ALK/BTK/c-KIT/c-SRC/MET/PDGFRα/VEGFR2), the substrate for the kinase to be tested (a reference material), 10 mM of the solution of magnesium acetate and γ-^33 P-ATP, and different concentrations of the tested compounds. […] The reaction was terminated with […] of the 3% phosphate buffer solution. 10 μL of the reaction liquid was titrated on the Filtermat A membrane. The membrane was washed with 75 mM of the phosphate solution thrice (5 minutes each time), and then with methanol once, and finally dried. The membrane was subjected to a scintillation counting. The value of the scintillation counting reflected the phosphorylation level of the substrate and therefore could characterize the inhibition of the kinase activity.
# [13] = biological target: MET (Homo sapiens (Human), UniProt P08581); assay: as above; assay type: biochemical; details: compound at 10 μM; read-out: The kinase activity inhibitory rate (%) by the tested compounds at 10 μM MET
# Experimental: as §4, §5
# [14] = biological target: ALK (Homo sapiens (Human), UniProt Q9UM73); assay: as above; assay type: biochemical; details: compound at 10 μM; read-out: The kinase activity inhibitory rate (%) by the tested compounds at 10 μM ALK
# Experimental: as §4, §5
# [15] = biological target: c-SRC (Homo sapiens (Human), UniProt P12931); assay: as above; assay type: biochemical; details: compound at 10 μM; read-out: The kinase activity inhibitory rate (%) by the tested compounds at 10 μM c-SRC
# Experimental: as §4, §5
# [16] = biological target: VEGFR2 (Homo sapiens (Human), UniProt P35968); assay: as above; assay type: biochemical
# Experimental: as §4, §5
# [17] = biological target: BTK (Homo sapiens (Human), UniProt Q06187); assay: as above; assay type: biochemical; details: compound at 10 μM; read-out: The kinase activity inhibitory rate (%) by the tested compounds at 10 μM BTK
# Experimental: as §4, §5
# [18] = biological target: c-KIT (Homo sapiens (Human), UniProt P10721); assay: as above; assay type: biochemical; details: compound at 10 μM; read-out: The kinase activity inhibitory rate (%) by the tested compounds at 10 μM c-KIT
# Experimental: as §4, §5
# [19] = biological target: PDGFRα (Homo sapiens (Human), UniProt P16234); assay: as above; assay type: biochemical; details: compound at 10 μM; read-out: The kinase activity inhibitory rate (%) by the tested compounds at 10 μM PDGFRα
# Experimental: as §4, §5
# [20] = tested on: non-small cell lung carcinoma cell strain PC-9 (EGFR delE746-A750 deletion mutation); assay: In-vitro tumor cell proliferation inhibition, MTT; assay type: cell-based, human; details: 72 hours
# Experimental: as §1
# (§6) All of the above-mentioned non-small cell lung carcinoma cell strains and the breast carcinoma cell strain BT 474 were cultured with a RPMI-1640 complete culture medium containing 10% fetal bovine serum, 100 U/ml penicillin and 100 μg/ml streptomycin under 5% CO2 and at 37° C. The other cell strains were cultured with a DMEM complete culture medium containing 10% fetal bovine serum (having a MV4-11 cell content of 20%), 100 U/ml penicillin and 100 μg/ml streptomycin under 5% CO2 and 37° C.
# as §3
# [21] = tested on: non-small cell lung carcinoma cell strain H292 (EGFR WT); assay: In-vitro tumor cell proliferation inhibition, MTT; assay type: cell-based, human; details: 72 hours
# Experimental: as §1, §6, §3
# [22] = tested on: non-small cell lung carcinoma cell strain HCC827; assay: In-vitro tumor cell proliferation inhibition, MTT; assay type: cell-based, human; details: 72 hours
# Experimental: as §1, §6, §3
# [23] = tested on: non-small cell lung carcinoma cell strain H1975 (EGFR L858R/T790M mutation); assay: In-vitro tumor cell proliferation inhibition, MTT; assay type: cell-based, human; details: 72 hours
# Experimental: as §1, §6, §3
# [24] = 72 hours, read-out: HEPG2 (IC50)
# Sequence of VEGFR2 (P35968 20-1356): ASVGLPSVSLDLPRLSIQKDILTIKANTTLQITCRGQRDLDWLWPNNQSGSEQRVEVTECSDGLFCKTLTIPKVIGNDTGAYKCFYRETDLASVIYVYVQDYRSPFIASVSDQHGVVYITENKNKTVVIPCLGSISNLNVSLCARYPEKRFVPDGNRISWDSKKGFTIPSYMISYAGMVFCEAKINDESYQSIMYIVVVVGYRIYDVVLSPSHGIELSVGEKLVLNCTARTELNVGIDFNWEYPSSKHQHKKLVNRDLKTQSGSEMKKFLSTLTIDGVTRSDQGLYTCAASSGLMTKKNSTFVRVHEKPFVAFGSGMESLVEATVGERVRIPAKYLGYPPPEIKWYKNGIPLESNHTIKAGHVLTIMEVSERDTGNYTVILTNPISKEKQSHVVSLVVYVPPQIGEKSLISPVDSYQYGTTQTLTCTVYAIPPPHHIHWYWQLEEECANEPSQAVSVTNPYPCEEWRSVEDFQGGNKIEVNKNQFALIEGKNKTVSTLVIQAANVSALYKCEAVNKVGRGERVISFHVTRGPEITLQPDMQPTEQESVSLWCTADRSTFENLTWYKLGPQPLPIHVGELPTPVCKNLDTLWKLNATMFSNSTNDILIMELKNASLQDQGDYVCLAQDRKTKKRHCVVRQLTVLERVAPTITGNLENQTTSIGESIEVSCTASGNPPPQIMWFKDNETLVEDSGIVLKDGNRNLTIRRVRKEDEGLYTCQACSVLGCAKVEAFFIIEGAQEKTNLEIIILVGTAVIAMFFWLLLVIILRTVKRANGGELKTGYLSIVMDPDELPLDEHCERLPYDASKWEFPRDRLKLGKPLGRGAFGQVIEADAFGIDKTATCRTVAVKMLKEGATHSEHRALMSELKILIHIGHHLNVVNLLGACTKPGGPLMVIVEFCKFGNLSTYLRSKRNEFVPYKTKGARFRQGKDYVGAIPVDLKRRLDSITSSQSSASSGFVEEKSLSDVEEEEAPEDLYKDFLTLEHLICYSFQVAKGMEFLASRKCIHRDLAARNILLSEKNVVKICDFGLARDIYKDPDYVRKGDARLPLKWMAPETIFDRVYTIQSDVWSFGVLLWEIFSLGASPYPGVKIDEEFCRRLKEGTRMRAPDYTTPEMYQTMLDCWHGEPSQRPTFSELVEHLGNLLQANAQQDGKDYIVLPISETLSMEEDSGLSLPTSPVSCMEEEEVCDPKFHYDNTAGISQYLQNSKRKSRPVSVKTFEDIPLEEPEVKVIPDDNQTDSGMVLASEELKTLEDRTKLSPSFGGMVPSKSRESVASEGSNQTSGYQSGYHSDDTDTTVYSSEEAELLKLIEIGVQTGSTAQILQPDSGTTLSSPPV
# Sequence of MET (P08581 25-1390): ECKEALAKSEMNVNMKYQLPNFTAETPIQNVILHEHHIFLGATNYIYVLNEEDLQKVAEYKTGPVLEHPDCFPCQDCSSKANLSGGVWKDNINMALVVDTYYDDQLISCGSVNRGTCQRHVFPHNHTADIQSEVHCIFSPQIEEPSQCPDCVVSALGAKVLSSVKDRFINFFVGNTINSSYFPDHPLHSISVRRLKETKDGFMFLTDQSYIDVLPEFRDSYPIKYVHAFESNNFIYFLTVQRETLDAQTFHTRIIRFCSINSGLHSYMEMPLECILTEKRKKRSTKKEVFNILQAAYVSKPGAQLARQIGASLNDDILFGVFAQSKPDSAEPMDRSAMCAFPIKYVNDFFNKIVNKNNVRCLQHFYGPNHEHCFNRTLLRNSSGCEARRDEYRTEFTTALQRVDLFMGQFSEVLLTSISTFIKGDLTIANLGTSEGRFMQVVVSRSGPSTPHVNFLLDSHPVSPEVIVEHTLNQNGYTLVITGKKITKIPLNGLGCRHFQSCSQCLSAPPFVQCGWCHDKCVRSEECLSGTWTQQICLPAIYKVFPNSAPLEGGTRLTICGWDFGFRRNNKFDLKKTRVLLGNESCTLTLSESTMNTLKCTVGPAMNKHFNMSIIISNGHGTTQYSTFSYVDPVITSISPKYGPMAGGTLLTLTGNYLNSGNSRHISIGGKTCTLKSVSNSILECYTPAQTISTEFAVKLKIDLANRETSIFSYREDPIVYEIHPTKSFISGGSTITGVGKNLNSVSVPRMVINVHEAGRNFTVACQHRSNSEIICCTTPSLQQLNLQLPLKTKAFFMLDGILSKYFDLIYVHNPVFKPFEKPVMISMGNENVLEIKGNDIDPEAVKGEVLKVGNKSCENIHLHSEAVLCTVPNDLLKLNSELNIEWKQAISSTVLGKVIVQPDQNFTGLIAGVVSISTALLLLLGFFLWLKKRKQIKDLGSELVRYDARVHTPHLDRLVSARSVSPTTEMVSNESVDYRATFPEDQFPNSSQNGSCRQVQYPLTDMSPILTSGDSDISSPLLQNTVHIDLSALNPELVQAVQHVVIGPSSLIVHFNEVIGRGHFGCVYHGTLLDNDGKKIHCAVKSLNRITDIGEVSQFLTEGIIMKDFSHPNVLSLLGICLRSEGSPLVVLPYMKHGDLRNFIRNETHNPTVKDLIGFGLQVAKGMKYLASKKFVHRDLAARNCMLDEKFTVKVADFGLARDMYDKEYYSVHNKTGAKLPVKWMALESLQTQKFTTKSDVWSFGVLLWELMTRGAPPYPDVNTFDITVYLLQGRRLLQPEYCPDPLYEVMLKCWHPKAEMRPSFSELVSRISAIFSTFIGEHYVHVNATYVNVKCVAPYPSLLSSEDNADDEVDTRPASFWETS
# Sequence of FLT3 (P36888 27-993): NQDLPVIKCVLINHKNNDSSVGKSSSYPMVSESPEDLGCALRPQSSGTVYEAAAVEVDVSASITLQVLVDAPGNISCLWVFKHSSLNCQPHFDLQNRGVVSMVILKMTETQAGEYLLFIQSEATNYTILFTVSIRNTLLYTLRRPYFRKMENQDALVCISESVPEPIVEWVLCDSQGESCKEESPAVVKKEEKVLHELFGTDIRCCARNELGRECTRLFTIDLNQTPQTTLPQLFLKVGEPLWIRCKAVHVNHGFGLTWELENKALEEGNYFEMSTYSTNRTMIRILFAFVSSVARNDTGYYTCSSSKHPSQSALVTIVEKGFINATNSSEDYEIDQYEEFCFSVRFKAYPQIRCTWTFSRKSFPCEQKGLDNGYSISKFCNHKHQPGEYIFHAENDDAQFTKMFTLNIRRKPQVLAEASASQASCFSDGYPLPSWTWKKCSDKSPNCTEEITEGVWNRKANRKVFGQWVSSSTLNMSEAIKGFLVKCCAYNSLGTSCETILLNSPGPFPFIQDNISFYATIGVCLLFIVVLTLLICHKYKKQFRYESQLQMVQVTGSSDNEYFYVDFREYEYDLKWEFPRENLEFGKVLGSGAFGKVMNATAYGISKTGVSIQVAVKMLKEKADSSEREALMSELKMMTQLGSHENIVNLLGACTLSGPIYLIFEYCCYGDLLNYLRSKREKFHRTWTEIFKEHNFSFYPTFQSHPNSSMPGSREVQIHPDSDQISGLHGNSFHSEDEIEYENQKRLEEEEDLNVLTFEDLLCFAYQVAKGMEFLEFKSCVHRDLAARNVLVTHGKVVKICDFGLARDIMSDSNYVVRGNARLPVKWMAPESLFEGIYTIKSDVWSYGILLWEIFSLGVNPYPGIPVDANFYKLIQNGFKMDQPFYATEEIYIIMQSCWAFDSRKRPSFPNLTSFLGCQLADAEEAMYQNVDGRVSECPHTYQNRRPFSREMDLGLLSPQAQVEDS
# Sequence of c-SRC (P12931 whole entry, looked up): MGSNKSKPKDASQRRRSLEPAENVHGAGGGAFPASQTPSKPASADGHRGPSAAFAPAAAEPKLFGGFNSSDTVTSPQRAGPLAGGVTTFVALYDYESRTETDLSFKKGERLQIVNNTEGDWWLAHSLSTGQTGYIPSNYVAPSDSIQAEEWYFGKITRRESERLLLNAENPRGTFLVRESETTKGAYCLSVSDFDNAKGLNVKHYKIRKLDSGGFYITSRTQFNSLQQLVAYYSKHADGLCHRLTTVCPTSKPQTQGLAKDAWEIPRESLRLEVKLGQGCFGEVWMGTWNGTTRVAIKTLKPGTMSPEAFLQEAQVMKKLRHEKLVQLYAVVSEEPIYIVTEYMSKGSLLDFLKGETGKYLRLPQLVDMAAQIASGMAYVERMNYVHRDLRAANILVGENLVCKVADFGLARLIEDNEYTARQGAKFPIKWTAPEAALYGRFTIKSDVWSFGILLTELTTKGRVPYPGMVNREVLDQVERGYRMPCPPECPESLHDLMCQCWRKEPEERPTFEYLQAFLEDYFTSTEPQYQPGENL
# Sequence of BTK (Q06187 whole entry): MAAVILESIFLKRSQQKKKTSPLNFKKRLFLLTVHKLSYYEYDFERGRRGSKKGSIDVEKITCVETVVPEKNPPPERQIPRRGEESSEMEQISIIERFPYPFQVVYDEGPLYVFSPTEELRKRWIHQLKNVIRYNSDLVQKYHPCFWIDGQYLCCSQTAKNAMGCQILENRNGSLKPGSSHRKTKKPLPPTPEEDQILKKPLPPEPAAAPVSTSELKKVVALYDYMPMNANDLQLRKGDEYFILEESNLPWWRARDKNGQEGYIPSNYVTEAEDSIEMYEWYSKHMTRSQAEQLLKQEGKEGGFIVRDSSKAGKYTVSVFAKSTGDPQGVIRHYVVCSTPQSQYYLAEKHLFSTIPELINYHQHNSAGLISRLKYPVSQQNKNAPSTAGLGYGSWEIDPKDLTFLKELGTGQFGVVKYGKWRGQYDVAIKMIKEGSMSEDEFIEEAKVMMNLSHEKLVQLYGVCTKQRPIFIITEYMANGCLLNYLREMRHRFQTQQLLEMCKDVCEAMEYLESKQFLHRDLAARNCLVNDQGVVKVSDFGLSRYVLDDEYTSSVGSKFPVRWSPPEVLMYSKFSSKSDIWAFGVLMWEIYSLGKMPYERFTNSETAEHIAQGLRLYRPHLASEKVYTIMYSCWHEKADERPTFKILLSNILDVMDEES
IC50 [20],IC50 [21],IC50 [22],IC50 [23],IC50 ([1]; 72 hours),"IC50 [2, 24]",IC50 ([3]; 72 hours),IC50 ([4]; 72 hours),IC50 ([5]; 72 hours),IC50 ([6]; 72 hours),IC50 ([7]; 72 hours),IC50 ([8]; 72 hours),IC50 ([9]; 72 hours),IC50 [10],IC50 ([11]; 72 hours),Compound,further results
–,–,–,–,–,–,–,–,–,–,–,–,–,–,–,"CC(C)n1c(Nc2ccc(F)c(Cl)c2)nc2cnc(Nc3ccc(C(=O)NN4CCN(C)CC4)cc3F)nc21 [Compound 8-5, 3-fluoro-4-(9-isopropyl-8-(3-chloro-4-fluorophenylamino)-9H-purin-2-ylamino)-N-(4-methylpiperazin-1-yl)benzamide]","IC50 ([1]; Homo sapiens, BT-474, 72 hours): 1.86 µM; IC50 ([2]; Homo sapiens, HepG2, 72 hours): > 10 µM; IC50 ([3]; Homo sapiens, MDA-MB-468, 72 hours): 6.13 µM; IC50 ([4]; Homo sapiens, SW-620, 72 hours): 5.57 µM; IC50 ([5]; Homo sapiens, SW480, 72 hours): > 10 µM; IC50 ([6]; Homo sapiens, K562, 72 hours): 3.73 µM; IC50 ([7]; Homo sapiens, HCT-116, 72 hours): 7.81 µM; IC50 ([8]; Homo sapiens, A-375, 72 hours): > 1 µM; IC50 ([9]; Homo sapiens, MV4-11, 72 hours): 1.77 µM; IC50 ([10]; Homo sapiens): > 1 µM; IC50 ([11]; Homo sapiens, A-431, 72 hours): 9.29 µM; inhibition at 10 µM [12]: 35%; inhibition at 10 µM [13]: 64%; inhibition at 10 µM [14]: 54%; inhibition at 10 µM [15]: 32%; IC50 [16]: > 1 µM; inhibition at 10 µM [17]: 78%; inhibition at 10 µM [18]: 54%; inhibition at 10 µM [19]: 19%"
0.0006 µM,0.004 µM,0.0003 µM,0.271 µM,0.165 µM,7.23 µM,0.737 µM,1.57 µM,4.62 µM,0.148 µM,5.93 µM,0.974 µM,0.642 µM,0.457 µM,0.0796 µM,CN1CCN(c2ccc(Nc3ncc4nc(Nc5cccc(Cl)c5)n(C5CCCC5)c4n3)cc2)CC1 [Compounds 8-52],–
0.0002 µM,0.0041 µM,0.0002 µM,0.552 µM,1.51 µM,> 10 µM,0.622 µM,2.11 µM,4.21 µM,0.0953 µM,> 10 µM,8.07 µM,0.899 µM,0.559 µM,0.249 µM,Cc1cccc(Nc2nc3cnc(Nc4ccc(N5CCN(C)CC5)cc4)nc3n2C2CCCC2)c1 [Compounds 8-53],–
0.205 µM,0.279 µM,0.0063 µM,1.7 µM,3.96 µM,5.98 µM,3.35 µM,6.64 µM,6.73 µM,0.863 µM,6.96 µM,5.58 µM,1.07 µM,0.688 µM,2.06 µM,CN1CCN(c2ccc(Nc3ncc4nc(Nc5cc(Cl)cc(Cl)c5)n(C5CCCC5)c4n3)cc2)CC1 [Compounds 8-54],–
0.001 µM,> 10 µM,0.0002 µM,0.323 µM,0.456 µM,4.68 µM,2.18 µM,2.97 µM,5.32 µM,0.088 µM,6.55 µM,2.77 µM,0.682 µM,1.72 µM,0.198 µM,CN1CCN(c2ccc(Nc3ncc4nc(Nc5cc(F)ccc5F)n(C5CCCC5)c4n3)cc2)CC1 [Compounds 8-55],–
0.007 µM,0.081 µM,0.0006 µM,> 10 µM,> 10 µM,> 10 µM,> 10 µM,> 10 µM,> 10 µM,> 10 µM,> 10 µM,> 10 µM,4.43 µM,> 10 µM,> 10 µM,COCCOc1ccc(Nc2ncc3nc(Nc4ccccc4)n(C4CCCC4)c3n2)cc1 [Compounds 8-56],–
0.177 µM,0.752 µM,0.028 µM,> 10 µM,> 10 µM,> 10 µM,> 10 µM,8.37 µM,9.76 µM,0.352 µM,7.86 µM,> 10 µM,6.16 µM,4.59 µM,5.77 µM,CN1CCN(c2ccc(Nc3ncc4nc(Nc5cc(Cl)c(Cl)cc5Cl)n(C5CCCC5)c4n3)cc2)CC1 [Compounds 8-57],–
0.0021 µM,0.0033 µM,0.0002 µM,0.248 µM,1.1 µM,> 10 µM,6.84 µM,1.33 µM,4.75 µM,0.111 µM,5.72 µM,1.2 µM,0.0998 µM,0.808 µM,0.497 µM,CCN1CCN(Cc2ccc(Nc3ncc4nc(Nc5ccccc5)n(C5CCCC5)c4n3)cc2)CC1 [Compounds 8-59],–

# — patent US9096601B2 (CSPC Zhongqi Pharmaceutical Technology (Shijiazhuang) Co., …, priority 2010, dated 2015)
